Source: PubChem BioAssay (NCI)
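How tested: cells in 96-well plates exposed to compound for 48 hours at five concentrations. The concentration for full growth arrest is given as TGI.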

How the values were obtained:
Assay in all cases: NCI-60 cell line screen, 48 h
HOP-18 NSCLC = system: HOP-18 NSCLC
DLD-1 colon = system: DLD-1 colon
XF 498 CNS = system: XF 498 CNS
M19-MEL melanoma = system: M19-MEL melanoma
RXF-631 renal = system: RXF-631 renal
DMS 273 small cell lung = system: DMS 273 small cell lung
KM20L2 colon = system: KM20L2 colon

What does the source list for `COC(=O)/C(C=O)=C/Sc1ccccc1`?
TGI (HOP-18 NSCLC): > 100 µM; TGI (DLD-1 colon): 66 µM; TGI (XF 498 CNS): > 100 µM; TGI (M19-MEL melanoma): 55.7 µM; TGI (RXF-631 renal): 45.7 µM; TGI (DMS 273 small cell lung): 53.2 µM; TGI (KM20L2 colon): 94.7 µM
